In patent US11274097B2, “2-(het)aryl-substituted condensed bicyclic heterocycle derivatives as pest control agents” (BAYER CROPSCIENCE AKTIENGESELLSCHAFT, priority 2014, dated 2022):
Where “and” joins values, the source holds several entries; their conditions need not be identical. Equal values may be shown once.

What was measured:
[1] = log P by HPLC on a reversed-phase column (C 18), EEC Directive 79/831 Annex V.A8; type: physicochemical; conditions: 55° C.; for LOGP_HCOOH: acidic range, pH 2.7, 0.1% aqueous formic acid/acetonitrile; for LOGP_NEUTRAL: neutral range, pH 7.8, 0.001 molar aqueous ammonium hydrogencarbonate/acetonitrile
Experimental: The log P values are measured according to EEC Directive 79/831 Annex V.A8 by HPLC (high-performance liquid chromatography) on a reversed-phase column (C 18). Temperature: 55° C. The LC-MS determination in the acidic range is effected at pH 2.7 using 0.1% aqueous formic acid and acetonitrile (contains 0.1% formic acid) as eluents, linear gradient from 10% acetonitrile to 95% acetonitrile. Called log P (HCOOH) in the table. LC-MS determination in the neutral range is effected at pH 7.8 with 0.001 molar aqueous ammonium hydrogencarbonate solution and acetonitrile as eluents; linear gradient from 10% acetonitrile to 95% acetonitrile. Called log P (neutral) in the table. Calibration is effected with unbranched alkan-2-ones (having 3 to 16 carbon atoms) with known log P values (log P values determined on the basis of the retention times by linear interpolation between two successive alkanone s).

Ctenocephalides felis = Ctenocephalides felis in vitro contact test; type: in vivo; conditions: application rate 5 μg/cm^2; adult cat fleas; after 48 h
Experimental: Ctenocephalides felis—In Vitro Contact Test
For the coating of the test tubes, 9 mg of active ingredient are first dissolved in 1 ml of acetone p.a. and then diluted to the desired concentration with acetone p.a. 250 μl of the solution are distributed homogeneously on the inner walls and base of a 25 ml test tube by turning and rocking on an orbital shaker (rocking rotation at 30 rpm for 2 h). With 900 ppm active ingredient solution and internal surface 44.7 cm^2, given homogeneous distribution, an area-based dose of 5 μg/cm^2 is achieved.
After the solvent has evaporated off, the tubes are populated with 5-10 adult cat fleas (Ctenocephalides felis), sealed with a perforated plastic lid and incubated in a horizontal position at room temperature and ambient humidity. After 48 h, efficacy is determined. To this end, the test tubes are stood upright and the fleas are knocked to the base of the tube. Fleas which remain motionless at the base or move in an uncoordinated manner are considered to be dead or moribund.
100% efficacy means that all the fleas were dead or moribund. 0% efficacy means that no fleas were harmed.

Lucilia cuprina = Lucilia cuprina test (LUCICU); type: in vivo; conditions: application rate 100 ppm; L1 larvae; after 2 days
Experimental: Lucilia cuprina Test (LUCICU) Solvent: dimethyl sulphoxide To produce an appropriate active ingredient formulation, 10 mg of active ingredient are mixed with 0.5 ml of dimethyl sulphoxide, and the concentrate is diluted with water to the desired concentration. About 20 L1 larvae of the Australian sheep blowfly (Lucilia cuprina) are transferred into a test vessel containing minced horsemeat and the active ingredient preparation of the desired concentration. After 2 days, the kill in % is determined. 100% means that all the larvae have been killed; 0% means that none of the larvae have been killed.

Myzus persicae [2] = assay: Myzus persicae spray test (MYZUPE), Chinese cabbage leaf discs; type: in vivo; conditions: application rate 500 g/ha, after 6 days
Experimental: (§1) Myzus persicae—Spray Test (MYZUPE)
Solvent: 78 parts by weight of acetone • • 1.5 parts by weight of dimethylformamide
(§2) Emulsifier: alkylaryl poly glycol ether
(§3) To produce an appropriate active ingredient formulation, 1 part by weight of active ingredient is dissolved using the stated parts by weight of solvent and made up with water containing an emulsifier concentration of 1000 ppm until the desired concentration is attained. To produce further test concentrations, the preparation is diluted with emulsifier-containing water.
Discs of Chinese cabbage leaves (Brassica pekinensis) infested by all stages of the green peach aphid (Myzus persicae) are sprayed with an active ingredient formulation of the desired concentration.
After 6 days, the efficacy in % is determined. 100% means that all the aphids have been killed; 0% means that none of the aphids have been killed.

Phaedon cochleariae = Phaedon cochleariae spray test (PHAECO); type: in vivo; conditions: larvae, after 7 days
Experimental: Phaedon cochleariae—Spray Test (PHAECO)
(§4) Solvent: 78.0 parts by weight of acetone • • 1.5 parts by weight of dimethylformamide
(§5) Emulsifier: alkylaryl polyglycol ether
as §3
Discs of Chinese cabbage leaves (Brassica pekinensis) are sprayed with an active ingredient formulation of the desired concentration and, after drying, populated with larvae of the mustard beetle (Phaedon cochleariae).
After 7 days, the efficacy in % is determined. 100% means that all the beetle larvae have been killed; 0% means that no beetle larvae have been killed.

Spodoptera frugiperda = Spodoptera frugiperda spray test (SPODFR); type: in vivo; conditions: application rate 500 g/ha; maize leaf discs; after 7 days
Experimental: Spodoptera frugiperda—Spray Test (SPODFR)
as §4, §5, §3
Leaf discs of maize (Zea mays) are sprayed with an active ingredient formulation of the desired concentration and, after drying, populated with caterpillars of the armyworm (Spodoptera frugiperda).
After 7 days, the efficacy in % is determined. 100% means that all the caterpillars have been killed; 0% means that no caterpillars have been killed.

Tetranychus urticae = Tetranychus urticae spray test, OP-resistant (TETRUR); type: in vivo; conditions: bean leaf discs, after 6 days
Experimental: Tetranychus urticae—Spray Test, OP-Resistant (TETRUR)
as §4, §5, §3
Discs of bean leaves (Phaseolus vulgaris) infested by all stages of the greenhouse red spider mite (Tetranychus urticae) are sprayed with an active ingredient formulation of the desired concentration.
After 6 days, the efficacy in % is determined. 100% means that all the spider mites have been killed; 0% means that none of the spider mites have been killed.

Myzus persicae [3] = assay: Myzus persicae spray test (MYZUPE), bell pepper plants; type: in vivo; conditions: application rate 100 ppm, after 6 days
Experimental: as §1
(§6) Solvent: 7 parts by weight of dimethylformamide
as §2
To produce an appropriate active ingredient formulation, 1 part by weight of active ingredient is dissolved using the stated parts by weight of solvent and made up with water containing an emulsifier concentration of 1000 ppm until the desired concentration is attained. To produce further test concentrations, the preparation is diluted with emulsifier-containing water. If the addition of ammonium salts or/and penetrants is required, these are each added in a concentration of 1000 ppm to the formulation solution.
Bell pepper plants (Capsicum annuum) heavily infested by the green peach aphid (Myzus persicae) are treated by spraying with the active ingredient formulation in the desired concentration.
After 6 days, the kill in % is determined. 100% means that all the aphids have been killed; 0% means that no aphids have been killed.

Myzus persicae [4] = assay: Myzus persicae contact test (MYZUPE c); type: in vivo; conditions: 2.4 g/ha, 14 dat
Experimental: Myzus persicae—Contact Test (MYZUPE c)
as §6, §2
(§7) To produce an appropriate active ingredient formulation, 1 part by weight of active ingredient is dissolved using the stated parts by weight of solvent and made up with water containing an emulsifier concentration of 1000 ppm until the desired concentration is attained. To produce further test concentrations, the preparation is diluted with emulsifier-containing water. In the event that addition of ammonium salts or/and penetrants (rapeseed oil methyl ester) is required, these are each pipetted in a concentration of 1000 ppm after the finished formulation solution has been diluted.
One-leaved bell pepper plants (Capsicum annuum) heavily infested by the green peach aphid (Myzus persicae) are treated by spraying the underside of the leaf with the active ingredient formulation in the desired concentration.
(§8) After the desired time, the kill in % is determined. 100% means that all the aphids have been killed and 0% means that none of the aphids have been killed.

Myzus persicae [5] = assay: Myzus persicae translaminar test (MYZUPE t); type: in vivo; conditions: 14 dat
Experimental: Myzus persicae—Translaminar Test (MYZUPE t)
as §6, §2, §7
One-leaved bell pepper plants (Capsicum annuum) heavily infested by the green peach aphid (Myzus persicae) are treated by spraying the top side of the leaf with the active ingredient formulation in the desired concentration.
as §8

Aphis gossypii [6] = assay: Aphis gossypii contact test (APHIGO c); type: in vivo; conditions: 2.4 g/ha, 7 dat
Experimental: Aphis gossypii—Contact Test (APHIGO c)
as §6, §5, §7
One-leaved cotton plants (Gossypium hirsutum) heavily infested by the cotton aphid (Aphis gossypii) are treated by spraying the underside of the leaf with the active ingredient formulation in the desired concentration.
as §8

Aphis gossypii [7] = assay: Aphis gossypii translaminar test (APHIGO t); type: in vivo; conditions: 2.4 g/ha, 7 dat
Experimental: Aphis gossypii—Translaminar Test (APHIGO t)
as §6, §5, §7
One-leaved cotton plants (Gossypium hirsutum) heavily infested by the cotton aphid (Aphis gossypii) are treated by spraying the top side of the leaf with the active ingredient formulation in the desired concentration.
as §8

Nephotettix cincticeps = Nephotettix cincticeps test (NEPHCI); type: in vivo; conditions: 0.16 ppm
Experimental: Nephotettix cincticeps Test (NEPHCI)
as §6, §5, §7
Rice plants (Oryza sativa, var. Balilla) are treated by spraying with the active ingredient formulation in the desired concentration and then populated with larvae of the green rice leafhopper (Nephotettix cincticeps).
After the desired time, the kill in % is determined. 100% means that all leafhoppers have been killed; 0% means that none of the leafhoppers have been killed.

Nilaparvata lugens = Nilaparvata lugens test (NILALU); type: in vivo; conditions: 4 ppm
Experimental: Nilaparvata lugens Test (NILALU)
as §6, §5, §7
Rice plants (Oryza sativa, var. Balilla) are treated by spraying with the active ingredient formulation in the desired concentration and then populated with L3 larvae of the brown planthopper (Nilaparvata lugens).
After the desired time, the feeding damage in % is determined. 100% means that no feeding damage is found; 0% means that the feeding damage to the treated plant corresponds to that of the untreated control.

Meloidogyne incognita = Meloidogyne incognita test; type: in vivo; conditions: application rate 20 ppm; lettuce; after 14 days
Experimental: Meloidogyne incognita Test Solvent: 125.0 parts by weight of acetone To produce a suitable active ingredient formulation, 1 part by weight of active ingredient is mixed with the stated amount of solvent and the concentrate is diluted with water to the desired concentration. Vessels are filled with sand, active ingredient solution, an egg/larvae suspension of the southern root-knot nematode (Meloidogyne incognita) and lettuce seeds. The lettuce seeds germinate and the plants develop. The galls develop on the roots. After 14 days, the nematicidal efficacy in % is determined by the formation of galls. 100% means that no galls were found; 0% means that the number of galls on the treated plants corresponds to the untreated control.

Compound | LOGP_HCOOH [1] | LOGP_NEUTRAL [1] | efficacy (Myzus persicae [2]) | efficacy (Phaedon cochleariae; application rate 500 g/ha) [%] | efficacy (Spodoptera frugiperda) [%] | efficacy (Tetranychus urticae; application rate 500 g/ha) [%] | further results
CCS(=O)(=O)c1ccccc1-c1nc2cc(C(F)(F)F)ncc2n1C [Example I-18] | 2.13 | 2.11 | 100% and 90% | 100 |  |  | efficacy (Ctenocephalides felis): 100%; efficacy (kill) (Lucilia cuprina): 100%
CC[S+]([O-])c1ccc(Cl)cc1-c1nc2cc(C(F)(F)F)ncc2n1C (stereo not drawn) [Example I-13] | 2.44 | 2.34 | 100% | 100 |  | 90 | 
Cn1c(-c2ccc(Cl)cc2S(C)(=O)=O)nc2cc(C(F)(F)F)ncc21 [Example I-11] | 2.39 | 2.34 |  |  |  |  | efficacy (Phaedon cochleariae; application rate 100 g/ha): 100%; efficacy (kill) (Myzus persicae [3]): 97%
CCSc1ccc(Cl)cc1-c1nc2cc(C(F)(F)F)ncc2n1C [Example I-19] | 3.43 | 3.38 | 90% | 100 | 83 | 90 | 
CCSc1cc(C(F)(F)F)cnc1-c1nc2cc(C(F)(F)F)ncc2n1C [Example I-2] | 3.52 | 3.48 |  | 100 | 100 | 90 | 
CCS(=O)(=O)c1cc(C(F)(F)F)cnc1-c1nc2cc(C(F)(F)F)cnc2n1C [Ex. 5 known from WO2013018928] |  |  |  |  |  |  | % efficacy (Myzus persicae [4]): 50%; % efficacy (Myzus persicae [5]; 2.4 g/ha): 0%; % efficacy (Myzus persicae [5]; 12 g/ha): 0%; % efficacy (Aphis gossypii [6]): 15%; % efficacy (Aphis gossypii [7]): 0%; % efficacy (Nephotettix cincticeps; 14 dat): 0%; % efficacy (Nephotettix cincticeps; 21 dat): 0%; % efficacy (Nephotettix cincticeps; 34 dat): 0%; % efficacy (Nilaparvata lugens; 21 dat): 35%; % efficacy (Nilaparvata lugens; 28 dat): 20%

Further lines, with some results ahead:

LOGP_HCOOH [1] | LOGP_NEUTRAL [1] | Compound | efficacy (Myzus persicae [2]) | efficacy (Phaedon cochleariae; application rate 500 g/ha) [%] | efficacy (Spodoptera frugiperda) [%] | efficacy (Tetranychus urticae; application rate 500 g/ha) [%] | further results
3.46 | 3.39 | CCSc1cc(Cl)ccc1-c1nc2cc(C(F)(F)F)ncc2n1C [Example I-42] | 90% | 100 | 100 | 90 | 
2.70 | 2.64 | CCS(=O)(=O)c1c(C(F)(F)F)ccnc1-c1nc2cc(C(F)(F)F)ncc2n1C [Example I-48] | 100% | 100 | 83 |  | efficacy (Tetranychus urticae; application rate 100 g/ha): 90%
1.90 | 1.87 | CC[S+]([O-])c1ccccc1-c1nc2cc(C(F)(F)F)ncc2n1C (stereo not drawn) [Example I-22] | 100% | 100 |  | 90 | 
2.50 | 2.46 | CCS(=O)(=O)c1cccnc1-c1nc2cc(C(F)(F)C(F)(F)F)ncc2n1C [Example I-68] | 90% | 100 | 100 | 100 | nematicidal efficacy (formation of galls) (Meloidogyne incognita): 100%
